Data published in patent US6372800B1, “Benzene compound and pharmaceutical use thereof” (Mitsubishi Pharma Corporation, priority 1994, dated 2002).
Values joined by “and” are separate entries in the source; they are usually repeats but may differ in a detail not shown here. Equal values may be shown once.

How the values were obtained:
[1] = system: host versus graft reaction in rats; experiment: Inhibitory effect on host versus graft (HvG) reaction in rats (popliteal lymph node weight); type: in vivo, rat; conditions: administered daily for 4 days after the injection with cells intravenously or orally, difference of right and left popliteal lymph node weights
Protocol: (§1) The spleen is removed from male WKAH rats at ages of 4 to 5 weeks old and is used to obtain a single cell suspension of spleen cells using RPMI 1640 medium (containing kanamycin sulfate at […], penicillin G potassium at 100 unit/ml, N-2-hydroxyethylpiperazine-N-2-ethane sulfate at 10 mM, 0.1% sodium bicarbonate, and L-glutamine at 2 mM). After the treatment of lysing of red blood cells, the cells are washed at three times and are adjusted at 5×10^7 cells/ml with physiological saline. By injection into right hind foot pad of 100 ul of spleen cell suspension, the host versus graft reaction (HvG reaction) are induced. After 4 days of the injection with cells, both of right and left popliteal lymph nodes are removed and the weight of them are measured. The test compounds are examined by difference of the lymph node weights between right and left as a indicator of HvG reaction. In addition, after 4 days of the injection with cells, blood is obtained from tail vein of the rats and the number of peripheral white blood cells are measured using automatic hemocytometer for animal (MEK-5158, Nihonkouden Co. Ltd.). Test compounds are administered daily for 4 days after the injection with cells intravenously or orally.
(§2) The value in the table represents minimum effective dose (mg/kg).

[2] = system: peripheral white blood cells; experiment: Reduction of peripheral white blood cells in rats of the HvG reaction test; type: in vivo, rat; conditions: for Reduction of peripheral white blood cells, minimum effective dose: administered daily for 4 days intravenously or orally, blood from tail vein 4 days after the injection with cells; for reduction of peripheral white blood cell number relative to immunosuppressive dose (assessment in words): conclusion drawn from Table 1 (HvG test)
Protocol: as §1, §2

| SMILES | melting point | Inhibitory effect on HvG reaction, minimum effective dose [1] [mg/kg] | Reduction of peripheral white blood cells, minimum effective dose [2] [mg/kg] | reduction of peripheral white blood cell number relative to immunosuppressive dose (assessment in words) [2] |
| --- | --- | --- | --- | --- |
| CCCCCCCOc1ccc(CCC(C)(CO)NC(=O)c2cc([N+](=O)[O-])cc([N+](=O)[O-])c2)cc1 (racemic) | 150 to 151 °C |  |  |  |
| CCCCCCCOc1ccc(CCC(CO)(CCC)NC(=O)c2cc([N+](=O)[O-])cc([N+](=O)[O-])c2)cc1 (racemic) [Working Example 29] | 114 to 115 °C and 115 to 116 °C |  |  |  |
| CCCCCCCOc1ccc(CCC(C)(N)CO)cc1.Cl (stereo not drawn) [Compound of experiment 1, 2-Amino-4-(4-heptyloxyphenyl)-2-methylbutanol Hydrochloride] |  | 0.03 | 0.03 | weakness of reduction of peripheral white blood cell number |
| CCCCCCCCCc1ccc(CCCC(N)(CO)CCO)cc1 (stereo not drawn) [Compound of experiment 3, 2-Amino-2-[3-(4-nonylphenyl)propyl]butane-1,4-diol] | 71 to 73 °C | 0.03 | 0.03 | weakness of reduction of peripheral white blood cell number |
| CCCCCCCOc1ccc(CCC(N)(CC)CO)cc1.Cl (stereo not drawn) [Compound of experiment 27, 2-Amino-2-ethyl-4-(4-heptyloxyphenyl)butanol Hydrochloride] | 108 to 110 °C | 0.03 | 0.03 | weakness of reduction of peripheral white blood cell number |
| CCCCCCCOc1ccc(CC[C@@](N)(CO)CCC)cc1.Cl [Compound of experiment 31, (R)-2-amino-2-[2-(4-heptyloxyphenyl)ethyl]pentanol Hydrochloride] |  | <0.3 | 3 | weakness of reduction of peripheral white blood cell number |
| CCCCCCCOc1ccc(CCC(N)(CO)C(C)C)cc1.CCCCCCCOc1ccc(CCC(N)(CO)C(C)C)cc1.Cl.Cl.O (stereo not drawn) [Compound of experiment 60, 2-Amino-2-isopropyl-4-(4-heptyloxyphenyl)butanol Hydrochloride 1/2 Hydrate] |  | 1 | 3 | weakness of reduction of peripheral white blood cell number |
| CCCCCCCOc1ccc(CCC(C)(N)CO)cc1OC (stereo not drawn) [Compound of experiment 66, 2-Amino-4-(4-heptyloxy-3-methoxyphenyl)-2-methylbutanol 1/10 Hydrate] |  | 3 | 3 | weakness of reduction of peripheral white blood cell number |
| CCCCCCCCc1ccc(CCC(N)(CO)CO)cc1.Cl [FTY720, 2-amino-2-[2-(4-octylphenyl)ethyl]propane-1,3-diol hydrochloride, reference compound] |  | 0.1 | 0.03 |  |
| CCCCCCCc1ccc(CCCC(N)(CO)CCO)cc1 (stereo not drawn) [Working Example 4, 2-Amino-2-[3-(4-heptylphenyl)propyl]butane-1,4-diol] | 68 to 71 °C |  |  |  |
| CCCCCCCCCCCCc1ccc(CCC(CCOC(C)=O)(COC(C)=O)NC(C)=O)cc1 (stereo not drawn) [Working Example 16, 3-Acetamido-3-acetoxymethyl-5-(4-dodecylphenyl)pentyl Acetate] | 75 to 77 °C |  |  |  |
| CCCCCCCOc1ccc(CCC(CO)(CCC)NC(=O)c2cc([N+](=O)[O-])cc([N+](=O)[O-])c2)cc1 (stereo not drawn) [Working Example 32] | 90 to 91 °C |  |  |  |
| CCCCCCCC(=O)c1ccc(CCC(CCOC(C)=O)(CCOC(C)=O)NC(C)=O)cc1 [Working Example 100, 3-Acetamido-5-acetoxy-3-[2-(4-octanoylphenyl)ethyl]pentyl Acetate] | 83 to 86 °C |  |  |  |
| CCCCCCCOc1ccc(CCC(CO)(CCO)NC(=O)c2cc([N+](=O)[O-])cc([N+](=O)[O-])c2)cc1 (stereo not drawn) [Working Example 115] | 78 to 79 °C |  |  |  |
| CCCCCCCOc1ccc(CCC(CO)(CCO)NC(=O)c2cc([N+](=O)[O-])cc([N+](=O)[O-])c2)cc1 (stereo not drawn) [Working Example 116] | 77 to 79 °C |  |  |  |
